Data taken from patent publication US5478832A, “Quinoline compounds” (The Green Cross Corporation, priority 1992, dated 1995).

molecular target: T1, angiotensin II receptor (Rattus norvegicus, UniProt P25095); test: Inhibition of binding of angiotensin II to rat smooth muscle cells (125I-Tyr4-angiotensin II); details: 125I-AII; rat aorta-derived smooth muscle cells; room temperature, one hour; read-out: IC50, inhibitory activity to the binding of angiotensin II to its receptor
T1 sequence (P25095 1-359): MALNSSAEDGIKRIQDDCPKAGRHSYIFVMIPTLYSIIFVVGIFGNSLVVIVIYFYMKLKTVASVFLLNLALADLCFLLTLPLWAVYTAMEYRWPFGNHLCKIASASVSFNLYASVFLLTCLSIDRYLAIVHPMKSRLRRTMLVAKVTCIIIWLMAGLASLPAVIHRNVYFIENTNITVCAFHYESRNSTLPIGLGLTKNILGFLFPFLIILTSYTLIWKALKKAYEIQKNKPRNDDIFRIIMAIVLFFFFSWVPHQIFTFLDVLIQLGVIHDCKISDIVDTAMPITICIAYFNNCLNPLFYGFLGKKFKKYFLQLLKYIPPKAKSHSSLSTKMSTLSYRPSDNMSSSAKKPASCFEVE

SMILES	IC50 [nM]
CCc1nc2c(C)cc(C)nc2n1Cc1ccc2nc(-c3ccccc3C(=O)OC)ccc2c1 [Example 12, methyl 2-{6-[(2-ethyl-5,7-dimethyl-3H-imidazo-[4,5-b]pyridin-3-yl)methyl]quinolin-2-yl}benzoate]	440
CCCCc1nc(Cl)c(CO)n1Cc1ccc2nc(-c3ccccc3C(=O)O)ccc2c1	0.92
CCc1nc2c(C)cc(C)nc2n1Cc1ccc2nc(-c3ccccc3-c3nnn[nH]3)cc(Cl)c2c1 [Example 21, 2-ethyl-5,7-dimethyl-3-{[4-chloro-2-[2-(1H-tetrazol-5-yl)phenyl]quinolin-6-yl]methyl}-3H-imidazo[4,5-b]pyridine]	7.7
CCc1nc2c(C)cc(C)nc2n1Cc1ccc2nc(-c3ccccc3-c3nnn[nH]3)ccc2c1 [Example 15, 2-ethyl-5,7-dimethyl-3-{[2-[2-(1H-tetrazol-5-yl)phenyl]quinolin-6-yl]methyl}-3H-imidazo[4,5-b]pyridine]	0.94
CCCCc1nc(Cl)c(CO)n1Cc1ccc2nc(-c3ccccc3-c3nnn[nH]3)ccc2c1 [Example 11, {2-butyl-4-chloro-1-{[2-[2-(1H-tetrazol-5-yl)phenyl]quinolin-6-yl]methyl}-1H-imidazol-5-yl}methanol]	2.5

The remaining compounds from weak to strong by IC50, led by results:

IC50 [nM]	SMILES
50	CCCCc1nc(Cl)c(C=O)n1Cc1ccc2nc(-c3ccccc3C(=O)O)ccc2c1
11	CCCCc1nc2cccnc2n1Cc1ccc2nc(-c3ccccc3C(=O)O)ccc2c1 [Example 17]
6.4	CCc1nc2c(C)cc(C)nc2n1Cc1ccc2nc(-c3ccccc3C(=O)O)ccc2c1
